We go through 18 compounds from patent US11247976B2, “Synthetic ligands that modulate the activity of the RhlR quorum sensing receptor” (Wisconsin Alumni Research Foundation, priority 2016, dated 2022).

The structures appear in SMILES notation. pEC50: −log10 of the molar value.

Assay [1] has as its target T1, RhlR (Pseudomonas aeruginosa, UniProt P54292).
T1 construct: expressed in transfected cells; host or cells: E. coli JLD271 (ΔsdiA) with pJN105R2 (arabinose-induced) and pSC11-rhlI*
The experiment in a line: E. coli RhlR reporter agonism assay (JLD271/pJN105R2/pSC11-rhlI*). As to conditions: for RhlR agonist activity in words: single-concentration screen at 10 μM; for Emax: read-out: Maximum Activation (%); for RhlR agonist potency in words: dose-response. It is filed as cell-based, P. aeruginosa. Here is the method: (§1) All media and reagents for bacterial culture were purchased from commercial sources. Bacteria were cultured in Luria-Bertani broth (LB) at 37° C. with shaking at 200 rpm unless otherwise noted. The bacterial reporter strains used for this study were (i) the heterologous E. coli strain JLD271 (ΔsdiA) harboring the RhlR expression plasmid pJN105R2 and the rhlI-lacZ transcriptional fusion reporter pSC11-rhlI*, (ii) the heterologous E. coli strain JLD271 (ΔsdiA) harboring the LasR expression plasmid pJN105L and the […] transcriptional fusion reporter pSC11, and (iii) the P. aeruginosa strain PAO-JP2 (ΔlasrhlI) harboring the rhlI-gfp transcriptional fusion reporter prhlI-LVAgfp. Reporter strains JLD271/pJN105R2/pSC11-rhlI* and JLD271/pJN105L/pSC11 were grown in LB containing 100 μg/mL ampicillin and 10 μg/mL gentamicin. Freezer stocks of bacterial strains were maintained at −80° C. in 1:1 LB:50% glycerol.
(§2) To evaluate the modulatory activities of library compounds on RhlR and LasR using E. coli reporters, the strains JLD271/pJN105R2/pSC11-rhlI* and JLD271/pJN105L/pSC11 were used, respectively, as previously described.^38, 51 The following modifications were used in the RhlR agonism reporter assay, non-native compounds (10 μM or 1 mM) were compared to 1 mM BHL as the positive control. Briefly, a subculture was prepared by diluting an overnight culture 1:10 with fresh media containing 100 μg/mL ampicillin and 10 μg/mL gentamicin, and was incubated until it had grown to OD600=0.45. In all assays, L-arabinose was added to a final concentration of 4 mg/mL to induce RhlR expression. For RhlR agonism assays, activities of test compounds were measured relative to 1 mM BHL (the concentration required to induce a maximal level of RhlR activity). For RhlR antagonism assays, test compounds were competed against a concentration of BHL approximately equal to its EC50 value (10 μM). Activity was measured relative to 10 μM BHL. Inhibition was calculated by subtracting 100% from the relative activity value. Thus, 0% inhibition mimics represents no competitive displacement of 10 μM BHL by a test compound. In all assays, modifications were made to the standard Miller assay protocol to accommodate the use of the chlorophenol red-β-D-galactopyranoside (CPRG) β-galactosidase substrate. After cell lysis, 150 μL of the aqueous layer was transferred from each well of a solvent-resistant 96-well microtiter plate to the wells of a new clear, flat-bottom 96-well microtiter plate. CPRG (4 mg/mL in phosphate-buffered saline) was added to each well in 25 μL volumes. Plates were incubated at 30° C. until the positive control wells developed a red color (approximately 30 min). The amount of processed CPRG substrate was assessed by measuring the absorbance of each well at 570 nm. Enzymatic activity was calculated using the following equation: adjusted Miller units=1000·Abs570/(OD600·t·V),
(§3) where t is the incubation time of substrate with lysate and V is the volume of culture lysed.
Because LuxR-type receptors are often unstable in solution, preventing the use of in vitro assays to directly assess small molecule agonism and antagonism, reporter gene assays represent a standard method for screening small-molecule libraries for LuxR-type receptor modulation. Previously reported strains for this purpose were used in the current study.^38 Synthetic N-butanoyl L-homoserine lactone (BHL), the native ligand of RhlR, was used as the positive control for receptor activation. Commonly, agonists are measured relative to maximum possible receptor activation within a particular assay medium;^40 because the dose-response curve of BHL is distinctly shallow in these RhlR reporters, a high concentration of BHL is required to maximally activate RhlR. In this study, activation of compounds was measured relative to that elicited by 1 mM BHL (the concentration of BHL used causes no aberrant growth effects in the reporter strain). […]

For assay [2], the target named is T1, RhlR. The experiment in a line: E. coli RhlR reporter antagonism assay vs 10 μM BHL (JLD271/pJN105R2/pSC11-rhlI*). It is filed as cell-based, P. aeruginosa. As to conditions: for inhibition at 10 µM: read-out: % inhibition (10 μM), compound at 10 μM in the presence of 10 μM BHL; for inhibition at 1000 µM: read-out: % inhibition (1 mM), compound at 1 mM in the presence of 10 μM BHL; for RhlR antagonist activity in words: E. coli reporter vs 10 μM BHL. The method, then: as §1
as §2, with “For RhlR antagonism assays, test compounds were competed against a concentration of BHL approximately equal to its EC50 value (10 μM).” left out
as §3
The RhlR-modulatory activity of the J library compounds was assessed in a heterologous reporter strain (E. coli JLD271 harboring plasmids pJN105R2 and pSC11-rhlI*) in order to isolate the RhlR receptor from upstream QS regulation (e.g. regulation by LasR). Thus, the extent to which compounds were directly modulating RhlR could be determined. These assays were performed by incubating compound-treated, mid-log phase E. coli reporter cells in 96-well microtiter plates, followed by Miller assay evaluation of ß-galactosidase activity.
RhlR agonism and antagonism screens of each compound were performed initially at 10 μM.

Where [3] appears, read: compound at 10 μM, RhlR activity relative to 1 mM BHL, E. coli reporter.
The mark [4] stands for this setting: negative = agonism stronger than 10 μM BHL alone.

T1 sequence (P54292 whole entry): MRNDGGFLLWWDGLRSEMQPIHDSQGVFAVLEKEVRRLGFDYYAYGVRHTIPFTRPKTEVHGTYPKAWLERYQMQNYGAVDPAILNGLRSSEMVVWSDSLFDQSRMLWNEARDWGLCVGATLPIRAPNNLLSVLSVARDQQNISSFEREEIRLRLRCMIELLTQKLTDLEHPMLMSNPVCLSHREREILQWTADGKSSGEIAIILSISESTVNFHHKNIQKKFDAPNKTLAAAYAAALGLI

For orientation: inhibition means the change of the read-out against control, counted positive when it falls. Regarding `CCC(=O)N[C@H]1CCOC1=O` [Compound C3-AHL], at RhlR [1] (setting [3]), the activation at 10 µM stood at 25%. For the same compound, the “RhlR agonist activity in words” value on RhlR [1] (E. coli reporter) is “comparably less active than their respective counterparts”. At RhlR [2] (setting [4]), the inhibition at 10 µM was -5% and the inhibition at 1000 µM is -66%.

One may read the pEC50 as the EC50 on a negative log10 scale, so that one unit is a factor of ten. Low values mean a large EC50, high ones a small EC50. Regarding `CCCCC(=O)N[C@H]1CCOC1=O` [Compound C5-AHL], on RhlR [1], the pEC50 is 4.97 and the Emax stood at 80%. At RhlR [1] (setting [3]), this compound gave an activation at 10 µM of 53%. Besides, the “RhlR agonist activity in words” value on RhlR [1] (E. coli reporter) is “comparable RhlR activation to that of BHL”. In addition, at RhlR [2] (setting [4]), the inhibition at 10 µM is -18% and the inhibition at 1000 µM is -91%.

Consider `C=CCC(=O)N[C@H]1CCOC1=O` [Compound J2], for which the activation at 10 µM on RhlR [1] (setting [3]) was 39%. Further, the “RhlR agonist activity in words” value on RhlR [1] (E. coli reporter) is on record as “comparably less active than their respective counterparts”. On RhlR [2] (setting [4]), the inhibition at 10 µM came to 6% and the inhibition at 1000 µM was -110%.

On RhlR [1] (setting [3]), `C=CCCCC(=O)N[C@H]1CCOC1=O` [Compound J3] had an activation at 10 µM of 41%. Further, at RhlR [2] (setting [4]), the inhibition at 10 µM was -4% and the inhibition at 1000 µM is -69%.

As for `C/C=C/CC(=O)N[C@H]1CCOC1=O` [Compound J4], the activation at 10 µM on RhlR [1] (setting [3]) was determined as 21%. For the same compound, at RhlR [2] (setting [4]), the inhibition at 10 µM was 9% and the inhibition at 1000 µM is -47%.

For the compound `C/C=C\CC(=O)N[C@H]1CCOC1=O` [Compound J5], on RhlR [1], the pEC50 is 5.16 and the Emax amounted to 80%. In addition, the activation at 10 µM at RhlR [1] (setting [3]) worked out at 52%. On RhlR [1] (E. coli reporter), the “RhlR agonist activity in words” value is “activities statistically insignificant from native ligand BHL”. Moreover, at RhlR [2] (setting [4]), the inhibition at 10 µM was -12% and the inhibition at 1000 µM was -74%.

`C#CCCC(=O)N[C@H]1CCOC1=O` [Compound J7] registered an activation at 10 µM on RhlR [1] (setting [3]) of 45%. For the same compound, the “RhlR agonist activity in words” value at RhlR [1] (E. coli reporter) is recorded as “activities statistically insignificant from native ligand BHL”. At RhlR [2] (setting [4]), the inhibition at 10 µM is -7% and the inhibition at 1000 µM was -83%.

`C#CCCCC(=O)N[C@H]1CCOC1=O` [Compound J8] returned an activation at 10 µM at RhlR [1] (setting [3]) of 34%. Besides, on RhlR [2] (setting [4]), the inhibition at 10 µM is -2% and the inhibition at 1000 µM was -76%.

As for `CC(C)C(=O)N[C@H]1CCOC1=O` [Compound J17], at RhlR [1], the pEC50 is 5.31 and the Emax was 95%. Besides, on RhlR [1] (setting [3]), the activation at 10 µM turned out to be 62%. On RhlR [1] (E. coli reporter), the “RhlR agonist potency in words” value was “significantly more potent than BHL” and the “RhlR agonist activity in words” value is reported as “comparable RhlR activation to that of BHL”. In addition, on RhlR [2] (setting [4]), the inhibition at 10 µM was -30% and the inhibition at 1000 µM is -112%.

Take `CCC(C)C(=O)N[C@H]1CCOC1=O` (some centres unmarked) [Compound J19]: on RhlR [1], the pEC50 is 5.11 and the Emax was 95%. Moreover, at RhlR [1] (setting [3]), the activation at 10 µM was determined as 55%. Moreover, the “RhlR agonist activity in words” value on RhlR [1] (E. coli reporter) is recorded as “comparable RhlR activation to that of BHL”. For the same compound, on RhlR [2] (setting [4]), the inhibition at 10 µM is -24% and the inhibition at 1000 µM is -101%.

Consider `CC(C)(C)C(=O)N[C@H]1CCOC1=O` [Compound J20], for which the activation at 10 µM at RhlR [1] (setting [3]) is 1%. Further, at RhlR [1] (E. coli reporter), the “RhlR agonist activity in words” value is “inactive as agonists”. On RhlR [2], the “RhlR antagonist activity in words” value is recorded as “capable of inhibiting RhlR activity to a statistically significant extent”. Further, on RhlR [2] (setting [4]), the inhibition at 10 µM turned out to be 0% and the inhibition at 1000 µM was determined as 25%.

Regarding `CCC(C)(C)C(=O)N[C@H]1CCOC1=O` [Compound J21], the activation at 10 µM on RhlR [1] (setting [3]) stood at 5%. Besides, the “RhlR agonist activity in words” value on RhlR [1] (E. coli reporter) was “inactive as agonists”. Besides, at RhlR [2] (setting [4]), the inhibition at 10 µM was 3% and the inhibition at 1000 µM was 7%.

The compound `CCC(CC)C(=O)N[C@H]1CCOC1=O` [Compound J22] yielded an activation at 10 µM at RhlR [1] (setting [3]) of 28%. In addition, on RhlR [2] (setting [4]), the inhibition at 10 µM was 2% and the inhibition at 1000 µM is -66%.

At RhlR [1] (setting [3]), `O=C(N[C@H]1CCOC1=O)C1CC1` [Compound J23] showed an activation at 10 µM of 32%. At RhlR [1] (E. coli reporter), the “RhlR agonist activity in words” value was “comparably less active than their respective counterparts”. Besides, on RhlR [2] (setting [4]), the inhibition at 10 µM was -2% and the inhibition at 1000 µM was -69%.

Turning to `O=C(CC1CC1)N[C@H]1CCOC1=O` [Compound J25], at RhlR [1], the pEC50 is 5.56 and the Emax was 95%. At RhlR [1] (setting [3]), this compound gave an activation at 10 µM of 70%. At RhlR [1] (E. coli reporter), the “RhlR agonist potency in words” value was “significantly more potent than BHL” and the “RhlR agonist activity in words” value is listed as “strong”. In addition, on RhlR [2] (setting [4]), the inhibition at 10 µM was -47% and the inhibition at 1000 µM was -108%.

For the compound `CC1(C(=O)N[C@H]2CCOC2=O)CC1` [Compound J27, 1-methyl-cylclopropanoyl AHL], on RhlR [1] (setting [3]), the activation at 10 µM came to 2%. The “RhlR agonist activity in words” value at RhlR [1] (E. coli reporter) is “inactive”. At RhlR [2], the “RhlR antagonist activity in words” value is reported as “capable of inhibiting RhlR activity to a statistically significant extent”. At RhlR [2] (setting [4]), the inhibition at 10 µM was found to be 2% and the inhibition at 1000 µM amounted to 24%.

For orientation: % inhibition means the relative decrease from the control value, in per cent. Consider `CCCCCCCCCC(=O)CC(=O)N[C@H]1CCOC1=O` [OdDHL, N-(3-oxododecanoyl) HL, reference compound], for which the “% activation” value at RhlR [1] (setting [3]) came to 5%. The “% inhibition (10 μM)” value at RhlR [2] (compound at 10 μM in the presence of 10 μM BHL, negative = agonism stronger than 10 μM BHL alone) is 18%. Also, on RhlR [2] (screened at a maximal concentration of 200 microM (solubility), in the presence of 10 μM BHL), the “% inhibition at 200 µM” value turned out to be 53%.

In turn, `CCCC(=O)NC1CCOC1` (centres unmarked) [RN2] displayed an activation at 10 µM at RhlR [1] (setting [3]) of 0%. In addition, on RhlR [2] (setting [4]), the inhibition at 10 µM is -5% and the inhibition at 1000 µM turned out to be 20%.
